± gives the standard error.
Key:
621-102 (TSC2-deficient) = assay: relative viability vs DMSO; higher = less cytotoxic; conditions: serum: 10% FBS, 72 h
621-103 (TSC2-rescued) = assay: as above; conditions: serum: 10% FBS, 72 h
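Further: immortalized renal angiomyolipoma cells stably carrying empty vector or TSC2, dosed in 384-well plates in DMEM, viability normalized to vehicle-treated wells within each plate.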

| Structure (SMILES) | relative viability (621-102 (TSC2-deficient); 0.0001 µM) [%] | relative viability (621-102 (TSC2-deficient); 0.001 µM) [%] | relative viability (621-102 (TSC2-deficient); 0.01 µM) [%] | relative viability (621-102 (TSC2-deficient); 0.1 µM) [%] | relative viability (621-102 (TSC2-deficient); 1 µM) [%] | relative viability (621-102 (TSC2-deficient); 10 µM) [%] | relative viability (621-103 (TSC2-rescued); 0.0001 µM) [%] | relative viability (621-103 (TSC2-rescued); 0.001 µM) [%] | relative viability (621-103 (TSC2-rescued); 0.01 µM) [%] | relative viability (621-103 (TSC2-rescued); 0.1 µM) [%] | relative viability (621-103 (TSC2-rescued); 1 µM) [%] | relative viability (621-103 (TSC2-rescued); 10 µM) [%] |
| --- | --- | --- | --- | --- | --- | --- | --- | --- | --- | --- | --- | --- |
| CC(C)OC(=O)C1=CN(C(=O)c2ccc(F)c(F)c2)CC(C)(C)c2c1[nH]c1ccccc21 | 111 ± 1.3 | 106.3 ± 0.78 | 104 ± 1.6 | 102 ± 6.7 | 101 ± 2.5 | 101 ± 3.1 | 102.7 ± 0.95 | 104 ± 1.7 | 98.4 ± 1.8 | 99 ± 2.6 | 94.1 ± 5.9 | 99.22 ± 0.99 |
| CC1(COc2ccc3c(c2)ncn3-c2ccc3cccc(N4CCC(N)CC4)c3n2)COC1 | 109 ± 1.2 | 98.7 ± 1.8 | 109 ± 4.7 | 98.43 ± 0.71 | 67.8 ± 1.8 | 2.96 ± 0.37 | 96 ± 0.22 | 111.5 ± 0.64 | 110 ± 3.6 | 106 ± 3.9 | 77.4 ± 2.8 | 4.95 ± 0.59 |
| CN(C)C(=O)[C@H](O)[C@H](Cc1ccccc1)NC(=O)c1cc2cc(Cl)ccc2[nH]1 | 103 ± 1.9 | 94.3 ± 1 | 111 ± 2.4 | 110 ± 5.4 | 89.6 ± 3.6 | 111.8 ± 0.78 | 112.8 ± 0.78 | 108 ± 2.3 | 108.2 ± 0.39 | 106 ± 1.7 | 106 ± 1.5 | 104 ± 1.8 |
| CN(C)Cc1cccc(N/C(=C2\C(=O)Nc3cc(C(N)=O)ccc32)c2ccccc2)c1 | 103 ± 1.7 | 107 ± 0.88 | 104 ± 2 | 103 ± 2.6 | 99.92 ± 0.15 | 87.26 ± 0.14 | 99.8 ± 1.5 | 97.2 ± 1.9 | 99.2 ± 1.1 | 97.28 ± 0.78 | 92.4 ± 6.5 | 84.9 ± 2.5 |
| CN(C)Cc1cccc(N=C(c2ccccc2)c2c(O)[nH]c3cc(C(=O)N(C)C)ccc23)c1 | 107 ± 1.5 | 106 ± 1.2 | 102 ± 1.4 | 100.76 ± 0.028 | 98.5 ± 6.6 | 93.3 ± 1.4 | 98.05 ± 0.44 | 99.6 ± 1.7 | 98.8 ± 1.2 | 99.48 ± 0.73 | 91.7 ± 5.7 | 47.4 ± 2.2 |
| CN(C)c1ccc(-c2nc3ncc(Cl)c(N4CCN(CC(=O)Nc5nccs5)CC4)c3[nH]2)cc1 | 104 ± 2.7 | 96.7 ± 1.2 | 102 ± 4 | 105 ± 1.4 | 101 ± 4.3 | 49.3 ± 1.4 | 101 ± 2.5 | 103.4 ± 0.042 | 101.06 ± 0.096 | 100.6 ± 0.64 | 97.243 ± 0.044 | 47.5 ± 2.9 |
| CNC(=O)Nc1ccc(-c2nc(N3CC4CCC(C3)O4)c3cnn(C4CCC5(CC4)OCCO5)c3n2)cc1 | 97.36 ± 0.31 | 93.4 ± 2.7 | 76.3 ± 3.4 | 37.41 ± 0.17 | 25.6 ± 0.73 | 9.06 ± 0.58 | 108 ± 6.1 | 95.7 ± 2.1 | 73.8 ± 4.8 | 44.1 ± 1.1 | 34.1 ± 0.59 | 22 ± 0.064 |
| COC(=O)N[C@H](C(=O)N1CCC[C@H]1c1ncc(-c2ccc(-c3ccc(-c4cnc([C@@H]5CCCN5C(=O)[C@@H](NC(=O)OC)C(C)C)[nH]4)cc3)cc2)[nH]1)C(C)C | 103 ± 3.2 | 105 ± 0.22 | 106 ± 1.6 | 101 ± 3.8 | 96.21 ± 0.14 | 81.1 ± 2 | 100 ± 2.7 | 98.82 ± 0.6 | 100 ± 1.2 | 102 ± 2.3 | 99.4 ± 2.4 | 94.1 ± 1.9 |
| COCC(=O)NC/C=C/c1ccc2ncnc(Nc3ccc(Oc4ccc(C)nc4)c(C)c3)c2c1 | 100 ± 2.7 | 97.758 ± 0.079 | 97.3 ± 1.7 | 93.9 ± 1.9 | 98.9 ± 2.8 | 93.2 ± 2.4 | 101 ± 1.9 | 101.6 ± 0.36 | 103.06 ± 0.024 | 104 ± 1.2 | 103.7 ± 0.92 | 107.8 ± 0.28 |
| COc1cc2c(Nc3ccc(NC(=O)c4ccccc4)cc3)ncnc2cc1OCCCN1CCOCC1 | 97.1 ± 1.7 | 91.95 ± 0.3 | 108 ± 2 | 90.2 ± 5.2 | 79.6 ± 3.6 | 7.78 ± 0.95 | 104 ± 1.1 | 111 ± 4.9 | 104 ± 1.9 | 105 ± 1.6 | 95.8 ± 2.5 | 12.4 ± 0.25 |
| COc1cc2c(Oc3ccc(NC(=O)C4(C(=O)Nc5ccc(F)cc5)CC4)cc3F)ccnc2cc1OCCCN1CCOCC1 | 108 ± 7.4 | 111 ± 6.2 | 98 ± 5.1 | 102 ± 5.8 | 84.55 ± 0.78 | 2.81 ± 0.28 | 97.08 ± 0.89 | 97.1 ± 1.1 | 93.9 ± 3.7 | 91.72 ± 0.35 | 69.1 ± 1.5 | 1.1 ± 0.14 |
| COc1cc2ncnc(-n3nc(-c4ccccn4)nc3N)c2cc1OC | 101 ± 1.5 | 103 ± 2.7 | 107 ± 2.2 | 98.84 ± 0.53 | 94.28 ± 0.36 | 49.6 ± 1.6 | 106 ± 1.7 | 107 ± 2.5 | 109 ± 4 | 108.3 ± 0.77 | 110.4 ± 0.79 | 48.2 ± 3.8 |
| COc1ccc([C@]2(C#N)CC[C@@H](C(=O)O)CC2)cc1OC1CCCC1 | 96.5 ± 2.4 | 102.9 ± 0.13 | 95.4 ± 2.6 | 102 ± 2.7 | 105 ± 1.7 | 98.6 ± 0.28 | 102.2 ± 0.093 | 98 ± 0.98 | 97.1 ± 1.8 | 106.2 ± 0.53 | 93.85 ± 0.76 | 93.4 ± 2.3 |
| COc1ccccc1N1CCN(CCN(C(=O)C2CCCCC2)c2ccccn2)CC1 | 108 ± 0.74 | 102.3 ± 0.41 | 100 ± 1.5 | 104.2 ± 0.32 | 97.19 ± 0.27 | 99.4 ± 1 | 102.1 ± 1 | 99 ± 5.8 | 99.5 ± 5.7 | 110 ± 1.8 | 108 ± 1.8 | 98.5 ± 2.6 |
| COc1ccnc2[nH]cc(C(=O)C(=O)N3CCN(C(=O)c4ccccc4)C[C@H]3C)c12 | 105 ± 6.5 | 106 ± 3.8 | 111 ± 2.5 | 107 ± 2.7 | 86 ± 1.2 | 88.5 ± 5.7 | 112 ± 3.3 | 112 ± 1.2 | 108 ± 1.6 | 103 ± 1.8 | 106 ± 1.2 | 115 ± 1.5 |
| C[C@@H]1CCN(C(=O)CC#N)C[C@@H]1N(C)c1ncnc2[nH]ccc12 | 113 ± 2.6 | 98.5 ± 1.1 | 106 ± 4.8 | 109 ± 1.1 | 98.6 ± 2.7 | 104 ± 1.3 | 104 ± 4.3 | 100 ± 2.5 | 99.134 ± 0.051 | 102 ± 2.4 | 107 ± 0.27 | 96.7 ± 1.1 |
| C[C@@H]1CCO[C@H]2Cn3cc(C(=O)NCc4ccc(F)cc4F)c(=O)c(O)c3C(=O)N12 | 102 ± 1.5 | 104 ± 2.7 | 102.2 ± 0.83 | 106 ± 2.5 | 93.7 ± 9.2 | 108 ± 3.5 | 111.7 ± 0.85 | 109 ± 5.8 | 111 ± 2.1 | 117 ± 2.9 | 112 ± 4 | 109 ± 3.2 |
| C[S+]([O-])c1ccc(-c2nc(-c3ccc(F)cc3)c(-c3ccncc3)[nH]2)cc1 (stereo not given) | 112 ± 5 | 108.1 ± 0.69 | 98.1 ± 2.8 | 102 ± 1.2 | 111 ± 2 | 110 ± 2.8 | 101.3 ± 0.64 | 98.42 ± 0.75 | 98.6 ± 1.3 | 99.1 ± 2 | 100 ± 1.8 | 98.1 ± 1.3 |
| Cc1[nH]c(/C=C2\C(=O)Nc3ccc(S(=O)(=O)N(C)c4cccc(Cl)c4)cc32)c(C)c1C(=O)N1CCN(C)CC1 | 98.4 ± 1.2 | 101 ± 2.5 | 101 ± 1.8 | 91.6 ± 1.4 | 100 ± 2.6 | 87.2 ± 1.5 | 97.3 ± 1.6 | 97.86 ± 0.64 | 98.4 ± 2 | 99.52 ± 0.97 | 101.8 ± 0.38 | 91.5 ± 3.8 |
| Cc1[nH]nc2ccc(-c3cncc(OC[C@@H](N)Cc4ccccc4)c3)cc12 | 114.1 ± 0.3 | 108 ± 3.1 | 97.8 ± 2.1 | 99.05 ± 0.49 | 66.5 ± 1.1 | 2.57 ± 0.016 | 98.7 ± 4.7 | 89.14 ± 0.74 | 95.77 ± 0.18 | 101 ± 4 | 62.2 ± 1 | 6.08 ± 0.71 |

From the supplement of paper PMC8960247
